Reference: article PMC11079064, “Discovery of a brain penetrant small molecule antagonist targeting LPA1 receptors to reduce neuroinflammation and promote remyelination in multiple sclerosis” (Scientific Reports, 2024)
“Also recorded” adds a separate entry of the source.

Assays:
rat OPCs = test: OPC-macrophage Transwell co-culture; format: cell-based; details: in presence of macrophages, 300 nM
Protocol: Following PDGF withdrawal, we observed a 41% decrease in the number of MBP^+ oligodendrocytes when co-cultured with macrophages.
OPCs were isolated as previously described. Cells were plated on the membrane layer of poly-L-lysine (Millipore Sigma, St. Louis, MO) coated Transwell culture plates (VWR, Radnor, PA) at a seeding density of 1 × 10^6 cells per well. Transwell culture plates have microporous membrane which allows for factors to flow between the top and bottom chamber. This permits us to minimize direct contact between the macrophage and OPCs while allowing for a constant, renewable source unlike conditioned media which can be depleted. […]
Isolation of macrophages. […] Differentiated oligodendrocytes were detected with a rat monoclonal antibody to MBP (Millipore Sigma, St. Louis, MO) and OPCs were detected with a rabbit monoclonal antibody to PDGFRα (Santa Cruz Biotechnology, Dallas, TX). Macrophages were detected with CD68 (Santa Cruz Biotechnology, Dallas, TX). […] Images were acquired using a 20× objective, each well was read in a 5 × 5 matrix. Data were analyzed using GraphPad Prism (La Jolla, CA) and statistical significance was determined by ANOVA.

MOG-EAE mouse model = test: MOG-EAE mouse model, IBA1 immunostaining of spinal cord; format: in vivo; details: 3 mg/kg
Protocol: A lower lumbar segment of spinal cord was transferred from the EM fixative to 30% sucrose overnight and then sectioned using a sliding microtome. The resulting sections were stored in 30% sucrose in 0.1 M Phosphate Buffer pH 7.4 and stored at 4 °C. Free-floating spinal cord sections were rinsed with PBS, blocked with 5% normal goat serum in 0.1% Triton-X/PBS for 2 h, and subsequently incubated with antibodies against IBA1 (Life Technologies, Carlsbad, CA, 1:500) or CD3 (Abcam, Waltham, MA, 1:500) overnight at 4 °C. Sections were then washed 3 times with 0.1% triton-X/PBS and transferred to secondary antibody (1:500, Carlsbad, CA) in 0.1% Triton-X/PBS for 2 h at room temperature. Hoechst 33342 was diluted 1:2000 and added during the final wash step. Sections were stained with 1% Sudan Black in 70% ethanol, and washed 3 × 5 min in PBS. Stained sections were mounted onto slides and evaluated using a Nikon A1R confocal microscope and analyzed using Nikon NIS Elements software. Regions of interest (ROIs) were selected based on the largest contiguous lesion defined by Hoechst and Sudan Black co-staining. […] Cells were counted using the automatic General Analysis function in NIS Elements.
Supplemental Figure 9. […] Left, IBA1^+ area was quantified and normalized to Hoechst counts (* p = 0.0166, *** p=0.0002, mean ± SEM, ANOVA with Tukey’s, n>4). […]

[1] = tested on: CC1+/OLIG2+ oligodendrocytes; test: In vivo CC1 induction assay; parameters: species or system mouse; details: single 3 mg/kg dose, brains collected 5 days later
Description: Sections were immunostained for the mature oligodendrocyte marker, CC1, and the oligodendroglial marker, OLIG2 to represent the total OPC/oligodendrocyte population.
Female C57Bl/6 mice (9–11 weeks old) were used in this experiment, n = 5/group. […] On day 5, mice were sacrificed and brains submerged in formalin. Tissue was sectioned at 40 µm on a sliding microtome (ThermoFisher, Microm HM450, Waltham, MA). Four sections per mouse were immunostained. Sections were permeabilized and blocked by incubation with 20% goat serum (Millipore Sigma, St. Louis, MO) and 0.2% Triton X-100 (Millipore Sigma, St. Louis, MO) in PBS. Oligodendrocytes were detected with a rat monoclonal antibody to Anti-APC (1:500, Calbiochem, San Diego, CA), and the total pool OPC/oligodendrocyte pool were detected with a rabbit monoclonal antibody to Olig-2 (1:500, Invitrogen, Carlsbad, CA). Alexa Fluor 594 and 647 IgG secondary antibodies against rat and rabbit (1:1000, Invitrogen, Carlsbad, CA) were used for primary antibody detection. Cell nuclei were identified with Hoechst (1:1000, Invitrogen, Carlsbad, CA). […] Detection and quantification of the cells were performed using NIS Elements imaging software (Nikon, Minato, Tokyo).
Supplemental Figure 5. […] Sections were immunostained using antibodies against CC1 (mature oligodendrocytes), Olig2 (oligodendroglial marker), and counterstained with Hoechst. […]

SMILES: COc1ccc(NC(=O)N(c2ccccc2C(C)C)C2CCC(C(=O)O)CC2)c(OC(F)F)n1 (stereo not drawn) [PIPE-791]
- increase in differentiation versus vehicle treated cultures (rat OPCs): 2.1 fold
- level of IBA1+ staining in spinal cord (MOG-EAE mouse model): reduces IBA1^+ area; also recorded: significantly reduced
- increase in CC1+/OLIG2+ oligodendrocytes [1]: 163%
